The subject of this experiment is cytokine-stimulated human umbilical vein endothelial cells. Kind of experiment: Cell Adhesion Assay: adherence of fluorescently-labelled leukocytes to endothelial cell monolayers. It counts as cell-based. As to conditions: inhibition of cytokine-stimulated adhesion minus basal adhesion; calcein-AM labelled leukocytes on HUVEC monolayers. The protocol: The antiadhesion activity of compounds of the invention was determined using a modification of the previously described method, Jurgensen, C. H. et. al., J. Immunol. 144: 653-661. The adhesiveness of cytokine-stimulated human umbilical vein endothelial cells was assessed by quantitating the adherence of fluorescently-labelled (calcein-AM, Molecular Probes, Eugene, Oreg.) leukocytes to endothelial cell monolayers. Activity was determined by calculating inhibition of cytokine-stimulated adhesion minus the basal adhesion (unstimulated).

As usually defined, the IC50 is the point on the concentration scale where inhibition reaches its midpoint.

Regarding `COCCOCCOCCOCCOCCOCCOCCOCCOCCOC(=O)c1ccc(-c2nc3c(=O)n(CC4CCCCC4)c(=O)n(CC4CCCCC4)c3[nH]2)cc1` [Example 65, 4-(1,3-bis(cyclohexylmethyl)-1,2,3,6-tetrahydro-2,6-dioxo-9H-purin-8-yl)benzoic Acid Nonaethylene Glycol Methyl Ether Ester], the IC50 is 48 ± 19 nM. Regarding `COCCOCCOCCOCCOCCOCCOCCOCCOCCOC(=O)/C=C/c1ccc(-c2nc3c(=O)n(C4CCCCC4)c(=O)n(C4CCCCC4)c3[nH]2)cc1` [Example 66, (E)-4-[1,3-Bis(cyclohexyl)-1,2,3,6-tetrahydro-2,6-dioxo-9H-purin-8-yl]cinnamic Acid Nonaethylene Glycol Methyl Ether Ester], the IC50 is 230 ± 100 nM. In the case of `COCCOCCOCCOCCOCCOCCOCCOCCOCCNC(=O)/C=C/c1cccc(-c2nc3c(=O)n(CC4CCCCC4)c(=O)n(CC4CCCCC4)c3[nH]2)c1` [Example 67, (E)-3-(1,3-bis(cyclohexylmethyl)-1,2,3,6-tetrahydro-2,6-dioxo-9H-purin-8-yl)cinnamic Acid Nonaethylene Glycol Methyl Ether Amide], the IC50 is 2000 ± 820 nM.

For `COCCOCCOCCOCCOCCOCCOCCOCCOCCNC(=O)/C=C/c1ccc(-c2nc3c(=O)n(CC4CCCCC4)c(=O)n(CC4CCCCC4)c3[nH]2)cc1` [Example 69, (E)-4-(1,3-Bis(cyclohexylmethyl)-1,2,3,6-tetrahydro-2,6-dioxo-9H-purin-8-yl)cinnamic Acid Nonaethylene Glycol Methyl Ether Amide], the IC50 is 62 ± 27 nM. In the case of `COCCOCCOCCOCCOCCOCCOCCOCCOCCNC(=O)/C=C/c1ccc(-c2nc3c(=O)n(Cc4ccccc4)c(=O)n(Cc4ccccc4)c3[nH]2)cc1` [Example 70, (E)-4-[1,3-bis(benzyl)-1,2,3,6-tetrahydro-2,6-dioxo-9H-purin-8-y]cinnamic Acid Nonaethylene Glycol Methyl Ether Amide], the IC50 is greater than 1000 nM.

As for `COCCOCCOCCOCCOCCOCCOCCOCCOCCNC(=O)/C=C/c1ccc(-c2nc3c(=O)n(CC4CCCC4)c(=O)n(CC4CCCC4)c3[nH]2)cc1` [Example 71, (E)-4-(1,3-bis(cyclopentylmethyl)-1,2,3,6-tetrahydro-2,6-dioxo-9H-purin-8-yl)cinnamic Acid Nonaethylene Glycol Methyl Ether Amide], the IC50 is 240 ± 200 nM. The value for `COCCOCCOCCOCCOCCOCCOCCOCCOCCNC(=O)/C=C/c1ccc(-c2nc3c(=O)n(CC(C)C)c(=O)n(CC(C)C)c3[nH]2)cc1` [Example 72, (E)-4-(1,3-bis(2-methylpropyl)-1,2,3,6-tetrahydro-2,6-dioxo-9H-purin-8-yl)cinnamic Acid Nonaethylene Glycol Methyl Ether Amide] was greater than 2000 nM; that for `COCCOCCOCCOCCOCCOCCOCCOCCOCCNC(=O)c1ccc(-c2nc3c(=O)n(CC4CCCCC4)c(=O)n(CC4CCCCC4)c3[nH]2)cc1` [Example 75, 4-(1,3-Bis(cyclohexylmethyl)-1,2,3,6-tetrahydro-2,6-dioxo-9H-purin-8-yl)benzoic Acid Nonaethylene Glycol Methyl Ether Amide] was 60 ± 25 nM; that for `COCCOCCOCCOCCOCCOCCOCCOCCOCCN(C)C(=O)c1ccc(-c2nc3c(=O)n(CC4CCCCC4)c(=O)n(CC4CCCCC4)c3[nH]2)cc1` [Example 76, 4-(1,3-Bis(cyclohexylmethyl)-1,2,3,6-tetrahydro-2,6-dioxo-9H-purin-8-yl) benzoic Acid-N-methyl-Nonaethylene Glycol Methyl Ether Amide] was 350 ± 130 nM. The value for `COCCOCCOCCOCCOCCOCCOCCOCCOCCOC(=O)/C=C/c1ccc(-c2nc3c(c(=O)n(CC4CCCCC4)c(=O)n3CC3CCCCC3)n2Cc2ccccc2)cc1` [Example 77, (E)-4-(1,3-Bis(cyclohexylmethyl)-2,3,6,7-tetrahydro-2,6-dioxo-7-benzyl-1H-purin-8-yl)cinnamic Acid Nonaethylene Glycol Methyl Ether Ester] was 9.6 ± 5 nM; that for `COCCOCCOCCOCCOCCOCCOCCOCCOCCOC(=O)/C=C/c1ccc(-c2nc3c(c(=O)n(CC4CCCCC4)c(=O)n3CC3CCCCC3)n2CC(=O)c2ccccc2)cc1` [Example 78, (E)-4-(1,3-Bis(cyclohexylmethyl)-2,3,6,7-tetrahydro-2,6-dioxo-7-(2-oxo-2-phenylethyl)-1H-purin-8-yl)cinnamic Acid Nonaethylene Glycol Methyl Ether Ester] was 0.1 ± 0.09 nM. Next, `C#CCn1c(-c2ccc(/C=C/C(=O)OCCOCCOCCOCCOCCOCCOCCOCCOCCOC)cc2)nc2c1c(=O)n(CC1CCCCC1)c(=O)n2CC1CCCCC1` [Example 80, (E)-4-(1,3-Bis(cyclohexylmethyl)-2,3,6,7-tetrahydro-2,6-dioxo-7-(2-propynyl)-1H-purin-8-yl)cinnamic Acid Nonaethylene Glycol Methyl Ether Ester]: 10 ± 4 nM. As for `COCCOCCOCCOCCOCCOCCOCCOCCOCCOC(=O)/C=C/c1ccc(-c2nc3c(c(=O)n(CC4CCCCC4)c(=O)n3CC3CCCCC3)n2CC(C)=O)cc1` [Example 81, (E)-4-(1,3-Bis(cyclohexylmethyl)-2,3,6,7-tetrahydro-2,6-dioxo7-(2-oxo-2-methylethyl)-1H-purin-8-yl)cinnamic Acid Nonaethylene Glycol Methyl Ether Ester], the IC50 was 16 ± 18 nM. The value for `COCCOCCOCCOCCOCCOCCOCCOCCOCCOC(=O)/C=C/c1ccc(-c2nc3c(c(=O)n(CC4CCCCC4)c(=O)n3CC3CCCCC3)n2CN2CCOCC2)cc1` [Example 82, (E)-4-(1,3-Bis(cyclohexylmethyl)-2,3,6,7-tetrahydro-2,6-dioxo-7-(4-morpholinylmethyl)-1H-purin-8-yl)cinnamic Acid Nonaethylene Glycol Methyl Ether Ester] was 19 ± 16 nM; that for `CCn1c(-c2ccc(/C=C/C(=O)OCCOCCOCCOCCOCCOCCOCCOCCOCCOC)cc2)nc2c1c(=O)n(CC1CCCCC1)c(=O)n2CC1CCCCC1` [Example 83, (E)-4-(1,3-Bis(cyclohexylmethyl)-2,3,6,7-tetrahydro-2,6-dioxo-7-ethyl-1H-purin-8-yl)cinnamic Acid Nonaethylene Glycol Methyl Ether Ester] was 28 ± 12 nM; that for `CCOC(=O)Cn1c(-c2ccc(/C=C/C(=O)OCCOCCOCCOCCOCCOCCOCCOCCOCCOC)cc2)nc2c1c(=O)n(CC1CCCCC1)c(=O)n2CC1CCCCC1` [Example 84, (E)-4-(1,3-Bis(cyclohexylmethyl)-2,3,6,7-tetrahydro-2,6-dioxo-7-(2-ethoxy-2-oxoethyl)-1H-purin-8-yl)cinnamic Acid Nonaethylene Glycol Methyl Ether Ester] was 7 ± 4 nM. The value for `C=C(C)Cn1c(-c2ccc(/C=C/C(=O)OCCOCCOCCOCCOCCOCCOCCOCCOCCOC)cc2)nc2c1c(=O)n(CC1CCCCC1)c(=O)n2CC1CCCCC1` [Example 86, (E)-4-(1,3-Bis(cyclohexylmethyl)-2,3,6,7-tetrahydro-2,6-dioxo-7-(2-methyl-2-propenyl)-1H-purin-8-yl)cinnamic Acid Nonaethylene Glycol Methyl Ether Ester] was 8 ± 3 nM; that for `COCCOCCOCCOCCOCCOCCOCCOCCOCCOC(=O)/C=C/c1ccc(-c2nc3c(c(=O)n(CC4CCCCC4)c(=O)n3CC3CCCCC3)n2CC#N)cc1` [Example 87, (E)-4-(1,3-Bis(cyclohexylmethyl)-2,3,6,7-tetrahydro-2,6-dioxo-7-(cyanomethyl)-1H-purin-8-yl)cinnamic Acid Nonaethylene Glycol Methyl Ether Ester] was 37 ± 13 nM. Next, `COCCOCCOCCOCCOCCOCCOCCOCCOCCOC(=O)c1ccc(-c2nc3c(c(=O)n(CC4CCCCC4)c(=O)n3CC3CCCCC3)n2Cc2ccccc2)cc1` [Example 88, 4-(1,3-Bis(cyclohexylmethyl)-2,3,6,7-tetrahydro-2,6-dioxo-7-benzyl-1H-purin-8-yl)benzoic Acid Nonaethylene Glycol Methyl Ether Ester]: 49 ± 19 nM; `COCCOCCOCCOCCOCCOCCOCCOCCOCCOC(=O)c1ccc(-c2nc3c(c(=O)n(CC4CCCCC4)c(=O)n3CC3CCCCC3)n2C)cc1` [Example 89, 4-(1,3-Bis(cyclohexylmethyl)-2,3,6,7-tetrahydro-2,6-dioxo-7-methyl-1H-purin-8-yl)benzoic Acid Nonaethylene Glycol Methyl Ether Ester]: 38 ± 18 nM; `COCCOCCOCCOCCOCCOCCOCCOCCOCCOC(=O)CCc1ccc(-c2nc3c(c(=O)n(CC4CCCCC4)c(=O)n3CC3CCCCC3)n2C)cc1` [Example 90, 4-[(1,3-Bis(cyclohexylmethyl)-2,3,6,7-tetrahydro-2,6-dioxo-7-methyl-1H-purin-8-yl)phenyl] propionic Acid Nonaethylene Glycol Methyl Ether Ester]: 240 ± 140 nM.

As to `COCCOCCOCCOCCOCCOCCOCCOCCOCCNC(=O)/C=C/c1ccc(-c2nc3c(c(=O)n(CC4CCCCC4)c(=O)n3CC3CCCCC3)n2C)cc1` [Example 91, (E)-4-(1,3-Bis(cyclohexylmethyl)-2,3,6,7-tetrahydro-2,6-dioxo-7-methyl-1H-purin-8-yl)cinnamic Acid Nonaethylene Glycol Methyl Ether Amide], the IC50 was 60 ± 29 nM. Next, `COCCOCCOCCOCCOCCOCCOCCOCCOCCNC(=O)/C=C/c1ccc(-c2nc3c(c(=O)n(CC4CCCCC4)c(=O)n3CC3CCCCC3)n2Cc2ccccc2)cc1` [Example 92, (E)-4-(1,3-Bis(cyclohexylmethyl)-2,3,6,7-tetrahydro-2,6-dioxo-7-benzyl-1H-purin-8-yl)cinnamic Acid Nonaethylene Glycol Methyl Ether Amide]: 23 ± 12 nM. On to `COCCOCCOCCOCCOCCOCCOCCOCCOCCNC(=O)c1ccc(-c2nc3c(c(=O)n(CC4CCCCC4)c(=O)n3CC3CCCCC3)n2Cc2ccccc2)cc1` [Example 93, 4-(1,3-Bis(cyclohexylmethyl)-2,3,6,7-tetrahydro-2,6-dioxo-7-benzyl-1H-purin-8-yl)benzoic Add Nonaethylene Glycol Methyl Ether Amide], for which the IC50 is 69 ± 97 nM.

The values are drawn from patent publication US6608069B1, “Phenyl xanthine derivatives” (SmithKline Beecham Corporation, priority 1998, dated 2003).
